Experiment: Human HepG2 cell viability assay in 384 well format
Type: toxicity, cell-based
Parameters: dose 125 nL, time 70.5 hour; cytotoxicity at 70.5 h: concentration not given beside the values
Settings: HepG2 cells, read-out: Inhibition
`O=S(=O)(C1CC1)N1CCc2ncnc(N3CCOCC3)c2CC1` gave a cytotoxicity at 70.5 h of -7.75%. For `CCOCC1c2c(ncn2C)CCN1C(=O)c1cscn1` (stereo not drawn), the cytotoxicity at 70.5 h was 21.3%. In the case of `OCCN1CCC(F)(F)C2(CCN(c3cccnc3)C2)C1` (stereo not drawn), the cytotoxicity at 70.5 h is reported as -6.87%. `COCC(=O)NC1CC2(CCN(CCN(C)C)CC2)c2ccccc21` (stereo not drawn) gave a cytotoxicity at 70.5 h of -2.09%. For `O=C([C@H]1CCCO1)N1CC[C@H](O)[C@@H]1Cc1cccnc1`, the cytotoxicity at 70.5 h was -4.15%. `O=C(C1=CCCC1)N1C[C@@H]2COC[C@]2(COCC2CC2)C1` gave a cytotoxicity at 70.5 h of -6.62%. `O=C(C1CC=CC1)N1CC[C@@H](O)[C@H]1Cc1cccnc1` gave a cytotoxicity at 70.5 h of 1.93%. For `CCO[C@H]1CC[C@H]2[C@H]1OCCN2C(=O)COc1ccccc1`, the cytotoxicity at 70.5 h was -4.98%. For `O=C(c1cocn1)N1C[C@@H]2COC[C@]2(COc2cccnc2)C1`, the cytotoxicity at 70.5 h was -4.92%. `CC(C)CC(=O)N1CC[C@@H]2CN(Cc3cccnc3)S(=O)(=O)[C@@H]2CC1` showed a cytotoxicity at 70.5 h of -4.78%. In the case of `CNC(=O)N1CC[C@@H]2CN(Cc3ccccc3)S(=O)(=O)[C@@H]2CC1`, the cytotoxicity at 70.5 h is reported as -6.18%. With `CN(C)CCN1CCO[C@@H]2CN(C(=O)Cc3ccsc3)CC[C@@H]2C1` the cytotoxicity at 70.5 h was -8.58%. `COCC(=O)N1C[C@H](N(C)Cc2cncnc2)[C@H]2OCCC[C@H]21` gave a cytotoxicity at 70.5 h of -8.78%. Work on `Cn1ccc(-c2cc(C(=O)N3CCC(C(N)=O)CC3)c3ccccn23)n1` yielded a cytotoxicity at 70.5 h of -8.35%. With `O=S(=O)(C1CC1)N1CCC2(COCc3cnc(-c4cccnc4)nc32)C1` (stereo not drawn) the cytotoxicity at 70.5 h was -10.6%. `CS(=O)(=O)N1CCO[C@@H]2CN(C(=O)Cc3cccs3)CC[C@@H]2C1` gave a cytotoxicity at 70.5 h of -9.17%. With `O=C(CC1CC1)N1CCC2(COCc3cnc(-c4cccnc4)nc32)C1` (stereo not drawn) the cytotoxicity at 70.5 h was -2.06%. Work on `Cn1cccc1C(=O)N1C[C@@H]2C[C@@H](c3nnc(C4CC4)o3)O[C@@H]2C1` yielded a cytotoxicity at 70.5 h of -3.51%. Compound `NC(=O)N1C[C@H](NC(=O)c2cscn2)[C@@H]2OCCC[C@@H]21` has a cytotoxicity at 70.5 h of -6.33%. With `CS(=O)(=O)N1C[C@H](NC(=O)c2ccno2)[C@@H]2OCCC[C@@H]21` the cytotoxicity at 70.5 h was -7.45%. Compound `CN(Cc1cccnc1)[C@@H]1CN(C(=O)c2ccco2)[C@@H]2CCCO[C@H]12` has a cytotoxicity at 70.5 h of -10.7%. With `Cn1cc(CN2CCC3(CC2)CN(c2cccnc2)C(=O)CO3)cn1` the cytotoxicity at 70.5 h was -5.12%. With `Cc1occc1C(=O)N1CC[C@H]2C[C@@H](c3nnc(C4CC4)o3)O[C@@H]2C1` the cytotoxicity at 70.5 h was -12%. With `O=C(c1cccs1)N1CC[C@H]2C[C@@H](c3nnc(C4CC4)o3)O[C@@H]2C1` the cytotoxicity at 70.5 h was -7%. In the case of `Cn1ccc(-c2cc(C(=O)N3CCC(O)CC3)c3ccccn23)n1`, the cytotoxicity at 70.5 h is reported as 29.8%. `CC(Cn1ccnc1)NCc1csc2c1CCCC2` (stereo not drawn) showed a cytotoxicity at 70.5 h of -0.368%. `Cc1cc(C)n(Cc2cc(C(=O)N3CCCCC3c3nccs3)n[nH]2)n1` (stereo not drawn) showed a cytotoxicity at 70.5 h of 8.98%. Work on `CC(C)C1CN(c2ncccn2)CCC(=O)N1CC1CC1` (stereo not drawn) yielded a cytotoxicity at 70.5 h of 36.1%. `CSc1ccccc1NC(=O)CCC(=O)N(C)C1CCN(C)CC1` showed a cytotoxicity at 70.5 h of -0.551%. `O=C(NCc1ccc(Cl)s1)c1cc(CN2CCCC(O)C2)on1` (stereo not drawn) gave a cytotoxicity at 70.5 h of 19.4%. Compound `COC(=O)c1ccc2ccn(CC3COCCO3)c(=O)c2c1` (stereo not drawn) has a cytotoxicity at 70.5 h of -8.18%. For `Nc1ccnc(N2CCCC(CO)(Cc3cccc(Cl)c3)C2)n1` (stereo not drawn), the cytotoxicity at 70.5 h was 6.17%. In the case of `CCc1noc(CNc2nc(-c3cccnc3)nc3c2CCNCC3)n1`, the cytotoxicity at 70.5 h is reported as -14.3%. For `COc1ccc(Cc2ncc3c(n2)CN(C(=O)CO)C3)cc1`, the cytotoxicity at 70.5 h was -6.42%. In the case of `Cc1nc(C(C)Nc2nc3c(s2)c(C)nn3C)n[nH]1` (stereo not drawn), the cytotoxicity at 70.5 h is reported as 15.8%. Compound `CCN1CCC(CC(=O)NCC(O)c2ccc3ccccc3c2)CC1` (stereo not drawn) has a cytotoxicity at 70.5 h of 9.43%. In the case of `CCN(C)C(=O)c1ccc(N(C)Cc2cc(-c3ccncc3)no2)nc1`, the cytotoxicity at 70.5 h is reported as -2.26%. `CC(C)Oc1cc(N2CCC(C(N)=O)CC2)nc(N)n1` gave a cytotoxicity at 70.5 h of -3.58%. Compound `CS(=O)(=O)Nc1ccc(-n2c(CCCO)nc3ccccc32)cn1` has a cytotoxicity at 70.5 h of 0.667%. Compound `CCCn1ncc(C(=O)N2CCC(N3CCCCC3)CC2)c1C` has a cytotoxicity at 70.5 h of -11.6%. For `CCc1ncc(CN2CCN(c3cc(NC4CC4)nc(N)n3)CC2)cn1`, the cytotoxicity at 70.5 h was -15%. Work on `COc1ccc(CN(C)c2ccc(-c3nccn3C)nn2)cc1OC` yielded a cytotoxicity at 70.5 h of -5.32%. `COc1cc(Cl)cc(CN2CCCC(N3CCOCC3)C2)c1OC` (stereo not drawn) showed a cytotoxicity at 70.5 h of -5.79%. Work on `CCn1c(CN(C)C)nnc1C1CCN(Cc2ccccn2)CC1` yielded a cytotoxicity at 70.5 h of 20.6%. `Cc1ccccc1CN1C[C@@H]2COC[C@]2(CNC(=O)C2CCC2)C1` gave a cytotoxicity at 70.5 h of -7.13%. In the case of `CO[C@H]1CN(CC2CC2)[C@@H]2CCCO[C@H]12`, the cytotoxicity at 70.5 h is reported as -9.81%. With `CCOCC1c2c(ncn2C)CCN1C(=O)c1cnc(C)cn1` (stereo not drawn) the cytotoxicity at 70.5 h was -12%. With `Cc1occc1C(=O)N1CCC2(CCN(C(=O)c3cccnc3)C2)CC1` the cytotoxicity at 70.5 h was 5.51%. Compound `COCC(=O)NCc1cc(=O)n2c(n1)CN(CC1CC1)CCC2` has a cytotoxicity at 70.5 h of 0.0162%. Compound `COc1nn(C)c2c1CCCN(C(=O)c1cccc3cccnc13)C2` has a cytotoxicity at 70.5 h of -4.18%. In the case of `c1cc(COC[C@H]2CCC[C@]23CNCCO3)ccn1`, the cytotoxicity at 70.5 h is reported as 0.216%. `O=C(COc1ccccc1)N1C[C@@H]2COC[C@]2(COc2cccnc2)C1` showed a cytotoxicity at 70.5 h of 4.76%. For `O=C(c1ccc(F)cc1)N1C[C@@H]2COC[C@]2(COc2cccnc2)C1`, the cytotoxicity at 70.5 h was 14.6%. Work on `O=C(NC1CCCC1)[C@@H]1C[C@@H]2CCN(Cc3ccoc3)C[C@H]2O1` yielded a cytotoxicity at 70.5 h of -10%. `CC(C)N1CCO[C@@H]2CN(C(=O)Cc3cccs3)CC[C@@H]2C1` gave a cytotoxicity at 70.5 h of -6.99%. Work on `O=C([C@@H]1C[C@@H]2CCN(Cc3ccoc3)C[C@H]2O1)N1CCCC1` yielded a cytotoxicity at 70.5 h of -2.05%. `O=C(N1CCCC1)N1CCC2(CC1)CN(c1cccnc1)C(=O)CO2` showed a cytotoxicity at 70.5 h of -6.88%. In the case of `c1cc(CN2CCO[C@H]3[C@H](OCC4CCOCC4)CC[C@@H]32)co1`, the cytotoxicity at 70.5 h is reported as -9.4%. In the case of `O=C(N[C@@H]1CN(CC2CC2)[C@@H]2CCCO[C@@H]21)c1cscn1`, the cytotoxicity at 70.5 h is reported as -1.52%. Compound `CC(C)NC(=O)[C@@H]1C[C@@H]2CCN(Cc3ccoc3)C[C@H]2O1` has a cytotoxicity at 70.5 h of 0.151%. Compound `O=C(NC1CC1)[C@@H]1C[C@@H]2CCN(Cc3ccoc3)C[C@@H]2O1` has a cytotoxicity at 70.5 h of -8.25%. `CN(C)CCn1c2c(ccc1=O)CC(NCc1cnn(C)c1)CC2` (stereo not drawn) gave a cytotoxicity at 70.5 h of -8.72%. Work on `Cc1cccc(CN2C[C@H](OCc3ccccn3)[C@H]3COC[C@H]32)n1` yielded a cytotoxicity at 70.5 h of 5.07%. Compound `Cn1ccnc1CN1CCC(F)(F)C2(CCN(c3cccnc3)C2)C1` (stereo not drawn) has a cytotoxicity at 70.5 h of -8.56%. Compound `c1cncc(COC[C@@H]2CCC[C@]23CNCCO3)c1` has a cytotoxicity at 70.5 h of 0.77%. In the case of `Cc1ccc(CN2C[C@@H](OCc3ccccn3)[C@H]3COC[C@H]32)o1`, the cytotoxicity at 70.5 h is reported as -5%. For `Fc1ccc(CN2C[C@@H](OCc3ccccn3)[C@H]3COC[C@H]32)cc1`, the cytotoxicity at 70.5 h was -1.1%. Work on `Cc1cccc(CN2CCC3(CC2)CN(c2cccnc2)C(=O)CO3)n1` yielded a cytotoxicity at 70.5 h of -4.77%. In the case of `c1cc(CO[C@H]2CC[C@H]3[C@H]2OCCN3Cc2nccs2)ccn1`, the cytotoxicity at 70.5 h is reported as -2.27%. In the case of `Fc1ccc(CN2CCO[C@H]3[C@H](OCc4ccncc4)CC[C@@H]32)cc1`, the cytotoxicity at 70.5 h is reported as 55.8%. Compound `FC1(F)CCN(Cc2cccnc2)CC12CCN(c1ccccc1)C2` (stereo not drawn) has a cytotoxicity at 70.5 h of -1.56%. Compound `c1ccc(CO[C@@H]2CN(Cc3cccnc3)[C@@H]3COC[C@@H]32)nc1` has a cytotoxicity at 70.5 h of 5.82%. `CN(C)CCN1CCC2(CC1)CN(Cc1cccnc1)C(=O)CO2` gave a cytotoxicity at 70.5 h of -4.21%.

— ChEMBL document CHEMBL3507680, “University of Dundee, Gates Library screen for HepG2 cell viability”
